Measurements reported in patent publication US7008531B2, “Treatment of circulating water systems” (Arch Chemicals Inc., priority 2000, dated 2006).

Columns and labels:
[1] = tested on: field isolated mustard algae; test: Remedial laboratory study on algae (flask test, optical density after 5 days); format: cell-based; conditions: for Difference in performance between octadecylamine and dimethyloctadecylamine: 2.5 ppm with PHMB 4.0 ppm, summary of Table 2; for Comments (algae control) / Average Optical Density: Table 2, 5 days; for Average Optical Density: initial absorbance 0.10, <0.2 = algistatic or algicidal
Description: Remedial efficacy was evaluated in this example using field isolated mustard algae.
Studies were conducted in 125 ml flasks containing 6 mm borosilicate glass beads (50) and Jaworski's medium (50 ml). The flasks were inoculated with pooled cultures of mustard algae to achieve an initial absorbance of 0.10, as measured using a Milton Roy Spec 20 Spectrophotometer. […] The adjuvants identified in Table 2 were added at levels of 1.25 and 2.5 ppm active ingredient. Busan 20/20™ identified in Table 3 was added at levels of 0.625, 1.25, 2.5 and 5.0 ppm. The performance of the adjuvants were compared to the controls with and without PHMB. The flasks were closed using translucent caps, illuminated for 8 hours using a combination of fluorescent grow lamps and standard incandescent lamps each day and incubated at 80° F. for a period of 5 days. Algal growth was measured after 5 days using a Milton Roy Spec 20 spectrophotometer. The higher the optical density the heavier the growth.

[2] = tested on: field isolated mustard algae; test: Preventative laboratory study on algae (flask test, visual growth score); format: cell-based; conditions: for Average Visual Score: 10 days, 0-4 scale, any score >1 is a preventative failure
Description: In preventative laboratory treatment studies, growth conditions are optimised to support a bloom. An experimental flask is prepared with a medium having optimised growth conditions to support a bloom, the medium in the flask is treated with a prescribed concentration of a test formulation, and then inoculated with a low concentration of a bloom-forming organism. The medium is monitored for a period of time to observe whether the formulation is effective at preventing an algal bloom.
These studies used the most problematic organisms, i.e. field isolated mustard algae.
The Jawaorski's medium was modified by the addition of 4 ppm polyhexamethylene biguanide (PHMB) (ex Avecia Inc.) to inhibit the growth of the bacteria present in the algal isolates. The inocula were harvested by aseptic vacuum filtration and the concentration of algal cell masses were combined (“pooled”) and redispersed in a aseptic medium to provide a concentrated pooled inoculum. The amount of inoculum used was varied to achieve an initial optical density of 0.010 in the test flasks. The optical density was determined using a Milton Roy Spec 20 spectrophotometer.
[…] Each flask was then inoculated with a prescribed amount of the pooled inoculum, so that the liquid in the flask had no visible green cast.

[3] = Effect of adjuvant on water clarity (simulated swimming pool water, Hach Turbidimeter and visual inspection); format: physicochemical; conditions: for Turbidity / Visual Observations: simulated pool water with PHMB 6-12 ppm, pH 7.2-7.8, circulated 24 hours; for Turbidity: 70±3° F.; for Effect on water clarity: summary of Table 4, simulated pool water with PHMB
Description: Six 10 gallon fish aquariums equipped with a heater and a recirculating pump (to simulate a swimming pool environment) were filled with simulated swimming pool water containing polyhexamethylene biguanide (PHMB) comprising:
The pH of the tanks was maintained between 7.2 and 7.8 and the water temperature was maintained at 70±3° F. After the chemical additions the water was circulated for 24 hours. The water in each tank was then visually inspected and tested for turbidity using a Hach Turbidimeter.

[4] = adjuvant 1.25 ppm + PHMB 4.0 ppm
[5] = adjuvant 2.5 ppm + PHMB 4.0 ppm

SMILES | Difference in performance between octadecylamine and dimethyloctadecylamine [1] | Comments (algae control) [1, 4] | Average Optical Density [1, 4] | Average Optical Density [1, 5] | Average Visual Score [2, 5] | Average Visual Score ([2]; adjuvant 5.0 ppm + PHMB 4.0 ppm) | Average Visual Score ([2]; adjuvant 10.0 ppm + PHMB 4.0 ppm) | Average Visual Score ([2]; adjuvant 15.0 ppm + PHMB 4.0 ppm) | Preventing the field isolated mustard algae outbreak, compared with PHMB alone ([2]; in combination with PHMB, summary of Table 1) | Comments (algae control) [1, 5] | Turbidity ([3]; adjuvant 2.5 ppm) [NTU] | Visual Observations ([3]; adjuvant 2.5 ppm) | Turbidity ([3]; adjuvant 5.0 ppm) [NTU] | Visual Observations ([3]; adjuvant 5.0 ppm) | Turbidity ([3]; adjuvant 10.0 ppm) [NTU] | Visual Observations ([3]; adjuvant 10.0 ppm) | Effect on water clarity [3]
CCCCCCCCCCCCCCCCCCN(C)C [Dimethyloctadecylamine, dimethyloctadecylamine] | no significant difference | Control | 0.12 | 0.07 | – | – | – | – | – | – | – | – | – | – | – | – | –
CCCCCCCCCCCCN [Dodecylamine, dodecylamine] | – | – | 0.08 | 0.12 | 0 | 0 | 0 | 0 | effectiveness | Control | 2.7 | Clear | 1.8 | Clear | 2.5 | Clear | no effect on water clarity
CCCCCCCCCCCCCCCCCCN [Octadecylamine, octadecylamine] | no significant difference | Control | 0.16 | 0.08 | – | – | – | – | – | – | – | – | – | – | – | – | –
CCCCCCCCCCCCCCN [Tetradecylamine, reference compound] | – | – | – | – | – | – | – | – | – | – | – | – | 10.1 | Cloudy | 19.0 | Cloudy | resulted in water turbidity
